Data: ChEMBL document CHEMBL4507264, “Data for DCP probe BAY-7598” (2021)

Legend:
[1] = biological target: Calcium/calmodulin-dependent protein kinase type 1D (Homo sapiens) (UniProt Q8IU85); settings: Compound concentration 1000.0 nM
[2] = biological target: Serine/threonine-protein kinase ICK (Homo sapiens) (UniProt Q9UPZ9); settings: Compound concentration 1000.0 nM
[3] = biological target: High affinity nerve growth factor receptor (Homo sapiens) (UniProt P04629); settings: Compound concentration 1000.0 nM
[4] = biological target: Mitogen-activated protein kinase 1 (Homo sapiens) (UniProt P28482); settings: Compound concentration 1000.0 nM
Chain of Mitogen-activated protein kinase 1 (Homo sapiens) (P28482 whole entry): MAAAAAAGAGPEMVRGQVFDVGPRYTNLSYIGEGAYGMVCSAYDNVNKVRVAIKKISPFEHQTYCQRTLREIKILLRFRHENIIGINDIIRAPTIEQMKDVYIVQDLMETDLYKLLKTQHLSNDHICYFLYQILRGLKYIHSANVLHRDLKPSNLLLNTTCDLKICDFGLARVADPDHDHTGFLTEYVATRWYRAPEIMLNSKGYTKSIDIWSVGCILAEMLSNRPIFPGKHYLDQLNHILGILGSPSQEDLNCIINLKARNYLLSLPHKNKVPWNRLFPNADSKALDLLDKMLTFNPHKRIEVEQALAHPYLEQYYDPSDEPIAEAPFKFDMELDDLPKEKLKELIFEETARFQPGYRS

[5] = biological target: Activin receptor type-1 (Homo sapiens) (UniProt Q04771); settings: Compound concentration 1000.0 nM
[6] = biological target: Receptor-interacting serine/threonine-protein kinase 2 (Homo sapiens) (UniProt O43353); settings: Compound concentration 1000.0 nM
[7] = biological target: Protein kinase C theta type (Homo sapiens) (UniProt Q04759); settings: Compound concentration 1000.0 nM
[8] = biological target: Death-associated protein kinase 3 (Homo sapiens) (UniProt O43293); settings: Compound concentration 1000.0 nM
[9] = biological target: Cyclin-dependent kinase-like 2 (Homo sapiens) (UniProt Q92772); settings: Compound concentration 1000.0 nM
[10] = biological target: Tyrosine-protein kinase ABL1 (Homo sapiens) (UniProt P00519); settings: Compound concentration 1000.0 nM
[11] = biological target: D(1B) dopamine receptor (Homo sapiens) (UniProt P21918); settings: Compound concentration 10.0 uM
[12] = biological target: Ribosomal protein S6 kinase alpha-4 (Homo sapiens) (UniProt O75676); settings: Compound concentration 1000.0 nM
[13] = biological target: Ephrin type-A receptor 4 (Homo sapiens) (UniProt P54764); settings: Compound concentration 1000.0 nM
[14] = test system: Tyrosine-protein kinase ABL1 (Homo sapiens), P00519 [E255K]; settings: Compound concentration 1000.0 nM
[15] = biological target: Serine/threonine-protein kinase RIO2 (Homo sapiens) (UniProt Q9BVS4); settings: Compound concentration 1000.0 nM
[16] = biological target: Mast/stem cell growth factor receptor Kit (Homo sapiens) (UniProt P10721); settings: Compound concentration 1000.0 nM
[17] = biological target: Serine/threonine-protein kinase 17A (Homo sapiens) (UniProt Q9UEE5); settings: Compound concentration 1000.0 nM
[18] = biological target: Dual specificity protein kinase TTK (Homo sapiens) (UniProt P33981); settings: Compound concentration 1000.0 nM
[19] = test system: Proto-oncogene tyrosine-protein kinase receptor Ret (Homo sapiens), P07949 [V804M]; settings: Compound concentration 1000.0 nM
[20] = biological target: Tyrosine-protein kinase BTK (Homo sapiens) (UniProt Q06187); settings: Compound concentration 1000.0 nM
[21] = test system: Receptor-type tyrosine-protein kinase FLT3 (Homo sapiens), P36888 [D835Y]; settings: Compound concentration 1000.0 nM
[22] = test system: eIF-2-alpha kinase GCN2 (Homo sapiens), Q9P2K8 [S808G]; settings: Compound concentration 1000.0 nM
Chain of eIF-2-alpha kinase GCN2 (Homo sapiens), Q9P2K8 [S808G] (Q9P2K8 whole entry S808G): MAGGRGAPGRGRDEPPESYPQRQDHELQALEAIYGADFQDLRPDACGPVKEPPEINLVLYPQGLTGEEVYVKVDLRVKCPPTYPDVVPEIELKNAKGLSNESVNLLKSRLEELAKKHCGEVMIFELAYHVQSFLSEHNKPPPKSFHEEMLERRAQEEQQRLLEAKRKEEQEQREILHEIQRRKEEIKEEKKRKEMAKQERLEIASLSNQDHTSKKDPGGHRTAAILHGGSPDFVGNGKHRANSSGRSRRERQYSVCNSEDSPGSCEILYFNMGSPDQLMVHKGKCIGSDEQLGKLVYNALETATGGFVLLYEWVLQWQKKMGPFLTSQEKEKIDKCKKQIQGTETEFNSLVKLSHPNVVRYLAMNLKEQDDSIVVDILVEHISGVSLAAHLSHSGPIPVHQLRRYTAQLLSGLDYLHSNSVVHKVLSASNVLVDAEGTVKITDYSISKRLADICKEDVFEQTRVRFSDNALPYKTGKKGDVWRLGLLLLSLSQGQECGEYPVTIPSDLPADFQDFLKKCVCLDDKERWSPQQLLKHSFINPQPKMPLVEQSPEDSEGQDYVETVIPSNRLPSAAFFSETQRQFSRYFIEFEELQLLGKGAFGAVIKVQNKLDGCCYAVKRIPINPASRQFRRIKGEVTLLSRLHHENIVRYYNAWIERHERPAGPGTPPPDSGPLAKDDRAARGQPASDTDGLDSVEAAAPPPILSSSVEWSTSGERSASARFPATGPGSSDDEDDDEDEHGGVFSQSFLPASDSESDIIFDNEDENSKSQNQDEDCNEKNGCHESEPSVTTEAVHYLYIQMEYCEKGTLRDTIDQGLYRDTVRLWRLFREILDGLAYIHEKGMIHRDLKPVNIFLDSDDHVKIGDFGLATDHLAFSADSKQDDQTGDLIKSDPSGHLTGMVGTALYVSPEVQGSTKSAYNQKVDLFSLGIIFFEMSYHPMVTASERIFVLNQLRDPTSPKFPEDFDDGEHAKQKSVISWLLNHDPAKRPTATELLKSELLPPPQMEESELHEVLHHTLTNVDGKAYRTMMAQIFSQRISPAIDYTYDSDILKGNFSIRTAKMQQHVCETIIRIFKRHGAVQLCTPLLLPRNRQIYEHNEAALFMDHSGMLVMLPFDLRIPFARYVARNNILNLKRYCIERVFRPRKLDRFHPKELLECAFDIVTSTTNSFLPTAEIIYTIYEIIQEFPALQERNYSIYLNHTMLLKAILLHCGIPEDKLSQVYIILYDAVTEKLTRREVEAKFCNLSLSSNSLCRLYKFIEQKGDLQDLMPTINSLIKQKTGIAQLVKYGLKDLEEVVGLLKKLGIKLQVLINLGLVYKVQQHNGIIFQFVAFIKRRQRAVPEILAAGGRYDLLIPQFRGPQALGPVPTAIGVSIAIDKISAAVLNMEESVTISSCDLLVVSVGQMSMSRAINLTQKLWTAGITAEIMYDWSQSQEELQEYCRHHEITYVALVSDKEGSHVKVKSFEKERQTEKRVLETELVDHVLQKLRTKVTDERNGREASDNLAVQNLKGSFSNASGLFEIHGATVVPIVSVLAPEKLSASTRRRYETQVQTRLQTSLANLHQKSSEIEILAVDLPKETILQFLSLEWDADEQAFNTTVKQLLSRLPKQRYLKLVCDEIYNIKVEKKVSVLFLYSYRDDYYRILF

[23] = test system: ALK tyrosine kinase receptor (Homo sapiens), Q9UM73 [L1196M]; settings: Compound concentration 1000.0 nM
[24] = biological target: Cyclin-dependent kinase 18 (Homo sapiens) (UniProt Q07002); settings: Compound concentration 1000.0 nM
[25] = biological target: Tyrosine-protein kinase Mer (Homo sapiens) (UniProt Q12866); settings: Compound concentration 1000.0 nM
[26] = biological target: Calcium/calmodulin-dependent protein kinase type II subunit gamma (Homo sapiens) (UniProt Q13555); settings: Compound concentration 1000.0 nM
[27] = biological target: Ephrin type-B receptor 6 (Homo sapiens) (UniProt O15197); settings: Compound concentration 1000.0 nM
[28] = biological target: Serine/threonine-protein kinase SIK3 (Homo sapiens) (UniProt Q9Y2K2); settings: Compound concentration 1000.0 nM
Chain of Serine/threonine-protein kinase SIK3 (Homo sapiens) (Q9Y2K2 whole entry, looked up): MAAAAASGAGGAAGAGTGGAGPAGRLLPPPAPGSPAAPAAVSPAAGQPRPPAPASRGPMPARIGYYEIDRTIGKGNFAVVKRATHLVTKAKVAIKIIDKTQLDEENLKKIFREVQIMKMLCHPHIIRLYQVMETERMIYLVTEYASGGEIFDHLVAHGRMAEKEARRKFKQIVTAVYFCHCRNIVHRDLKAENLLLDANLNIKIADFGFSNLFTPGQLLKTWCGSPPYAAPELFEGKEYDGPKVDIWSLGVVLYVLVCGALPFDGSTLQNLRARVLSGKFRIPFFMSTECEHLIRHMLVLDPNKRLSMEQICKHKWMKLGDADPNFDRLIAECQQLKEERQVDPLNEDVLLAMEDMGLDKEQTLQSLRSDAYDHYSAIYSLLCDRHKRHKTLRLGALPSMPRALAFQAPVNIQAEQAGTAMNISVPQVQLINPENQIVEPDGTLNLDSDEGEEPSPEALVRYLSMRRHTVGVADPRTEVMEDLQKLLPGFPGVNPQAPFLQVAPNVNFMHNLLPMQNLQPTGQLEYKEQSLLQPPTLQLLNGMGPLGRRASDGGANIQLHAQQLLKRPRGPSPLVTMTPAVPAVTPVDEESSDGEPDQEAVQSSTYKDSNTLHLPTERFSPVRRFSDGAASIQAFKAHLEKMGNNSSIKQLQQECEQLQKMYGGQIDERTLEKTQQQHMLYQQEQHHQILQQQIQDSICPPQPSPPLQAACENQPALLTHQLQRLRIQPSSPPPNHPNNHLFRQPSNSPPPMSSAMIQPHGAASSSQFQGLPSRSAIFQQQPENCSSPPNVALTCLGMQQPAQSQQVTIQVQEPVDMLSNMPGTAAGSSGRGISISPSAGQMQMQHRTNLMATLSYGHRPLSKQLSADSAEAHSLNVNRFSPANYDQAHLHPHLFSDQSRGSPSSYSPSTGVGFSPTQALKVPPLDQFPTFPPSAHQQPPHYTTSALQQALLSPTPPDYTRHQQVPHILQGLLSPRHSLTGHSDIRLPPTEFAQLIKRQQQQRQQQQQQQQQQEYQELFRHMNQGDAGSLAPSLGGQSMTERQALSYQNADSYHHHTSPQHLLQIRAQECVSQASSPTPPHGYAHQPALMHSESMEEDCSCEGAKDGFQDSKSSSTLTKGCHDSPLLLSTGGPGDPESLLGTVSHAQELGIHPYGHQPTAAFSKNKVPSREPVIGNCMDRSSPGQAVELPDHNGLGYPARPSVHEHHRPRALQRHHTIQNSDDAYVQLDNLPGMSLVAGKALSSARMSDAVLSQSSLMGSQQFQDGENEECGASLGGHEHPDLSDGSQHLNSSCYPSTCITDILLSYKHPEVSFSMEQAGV

[29] = biological target: Serine/threonine-protein kinase Nek6 (Homo sapiens) (UniProt Q9HC98); settings: Compound concentration 1000.0 nM
Chain of Serine/threonine-protein kinase Nek6 (Homo sapiens) (Q9HC98 whole entry): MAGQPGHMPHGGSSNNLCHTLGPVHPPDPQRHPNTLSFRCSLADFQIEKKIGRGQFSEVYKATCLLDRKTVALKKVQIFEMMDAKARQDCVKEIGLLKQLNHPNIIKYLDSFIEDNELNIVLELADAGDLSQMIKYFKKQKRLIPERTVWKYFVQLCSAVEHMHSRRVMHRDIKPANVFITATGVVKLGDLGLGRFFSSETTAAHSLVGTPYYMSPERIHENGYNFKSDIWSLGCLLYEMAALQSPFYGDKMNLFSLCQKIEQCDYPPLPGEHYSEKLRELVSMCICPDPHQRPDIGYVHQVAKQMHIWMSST

[30] = biological target: Tyrosine-protein kinase TXK (Homo sapiens) (UniProt P42681); settings: Compound concentration 1000.0 nM
[31] = biological target: Serine/threonine-protein kinase 4 (Homo sapiens) (UniProt Q13043); settings: Compound concentration 1000.0 nM
[32] = test system: Tyrosine-protein kinase ABL1 (Homo sapiens), P00519 [F317L]; settings: Compound concentration 1000.0 nM
[33] = biological target: Mitogen-activated protein kinase kinase kinase 19 (Homo sapiens) (UniProt Q56UN5); settings: Compound concentration 1000.0 nM
[34] = biological target: Dual specificity protein kinase CLK3 (Homo sapiens) (UniProt P49761); settings: Compound concentration 1000.0 nM
[35] = biological target: Serine/threonine-protein kinase ULK1 (Homo sapiens) (UniProt O75385); settings: Compound concentration 1000.0 nM
Chain of Serine/threonine-protein kinase ULK1 (Homo sapiens) (O75385 whole entry): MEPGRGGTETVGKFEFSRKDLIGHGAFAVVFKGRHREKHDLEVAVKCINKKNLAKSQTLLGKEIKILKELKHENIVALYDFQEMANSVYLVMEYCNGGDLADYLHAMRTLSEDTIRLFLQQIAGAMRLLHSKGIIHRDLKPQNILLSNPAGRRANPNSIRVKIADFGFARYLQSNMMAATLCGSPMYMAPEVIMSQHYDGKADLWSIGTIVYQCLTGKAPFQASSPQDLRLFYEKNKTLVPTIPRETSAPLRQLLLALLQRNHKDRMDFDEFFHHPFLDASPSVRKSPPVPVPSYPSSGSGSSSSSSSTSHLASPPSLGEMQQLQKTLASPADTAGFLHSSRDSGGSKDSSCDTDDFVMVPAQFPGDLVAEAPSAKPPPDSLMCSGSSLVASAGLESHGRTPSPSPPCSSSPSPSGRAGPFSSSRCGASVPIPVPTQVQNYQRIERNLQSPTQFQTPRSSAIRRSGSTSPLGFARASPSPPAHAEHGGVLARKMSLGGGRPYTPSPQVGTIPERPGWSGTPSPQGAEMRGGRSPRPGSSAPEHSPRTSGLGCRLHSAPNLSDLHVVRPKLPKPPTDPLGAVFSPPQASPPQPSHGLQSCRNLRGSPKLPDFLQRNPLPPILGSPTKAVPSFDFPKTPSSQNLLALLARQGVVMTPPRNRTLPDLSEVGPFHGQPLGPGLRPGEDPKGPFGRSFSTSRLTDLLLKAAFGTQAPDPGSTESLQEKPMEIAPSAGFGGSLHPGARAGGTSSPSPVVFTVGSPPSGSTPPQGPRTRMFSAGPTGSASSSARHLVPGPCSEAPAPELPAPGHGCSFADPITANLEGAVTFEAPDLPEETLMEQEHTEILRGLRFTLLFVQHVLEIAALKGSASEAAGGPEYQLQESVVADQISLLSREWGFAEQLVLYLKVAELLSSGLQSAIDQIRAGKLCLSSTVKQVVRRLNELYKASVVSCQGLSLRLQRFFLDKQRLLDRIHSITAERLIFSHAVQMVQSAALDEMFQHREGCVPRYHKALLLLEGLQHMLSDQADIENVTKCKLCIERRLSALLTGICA

[36] = test system: Mast/stem cell growth factor receptor Kit (Homo sapiens), P10721 [L576P]; settings: Compound concentration 1000.0 nM
[37] = biological target: Insulin receptor-related protein (Homo sapiens) (UniProt P14616); settings: Compound concentration 1000.0 nM
[38] = test system: Receptor-type tyrosine-protein kinase FLT3 (Homo sapiens), P36888 [UNDEFINED MUTATION]; settings: Compound concentration 1000.0 nM
[39] = biological target: Casein kinase I isoform gamma-2 (Homo sapiens) (UniProt P78368); settings: Compound concentration 1000.0 nM
[40] = biological target: Peripheral plasma membrane protein CASK (Homo sapiens) (UniProt O14936); settings: Compound concentration 1000.0 nM
[41] = biological target: Homeodomain-interacting protein kinase 2 (Homo sapiens) (UniProt Q9H2X6); settings: Compound concentration 1000.0 nM
[42] = biological target: Serine/threonine-protein kinase DCLK1 (Homo sapiens) (UniProt O15075); settings: Compound concentration 1000.0 nM
[43] = test system: Mast/stem cell growth factor receptor Kit (Homo sapiens), P10721 [V559D]; settings: Compound concentration 1000.0 nM
[44] = biological target: Cyclin-dependent kinase 2 homolog (Plasmodium falciparum (isolate 3D7)) (UniProt P61075); settings: Compound concentration 1000.0 nM

Chain of Calcium/calmodulin-dependent protein kinase type 1D (Homo sapiens) (Q8IU85 whole entry, looked up): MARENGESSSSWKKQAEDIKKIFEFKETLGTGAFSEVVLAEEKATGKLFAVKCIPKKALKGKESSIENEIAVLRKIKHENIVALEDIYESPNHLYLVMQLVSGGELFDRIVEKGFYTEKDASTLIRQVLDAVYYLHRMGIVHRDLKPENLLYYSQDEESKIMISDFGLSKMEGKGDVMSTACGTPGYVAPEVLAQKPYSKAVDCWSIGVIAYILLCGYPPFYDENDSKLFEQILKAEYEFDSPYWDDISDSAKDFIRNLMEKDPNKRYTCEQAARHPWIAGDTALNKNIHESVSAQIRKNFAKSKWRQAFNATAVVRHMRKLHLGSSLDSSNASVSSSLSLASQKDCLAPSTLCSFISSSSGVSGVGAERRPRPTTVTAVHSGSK

O=C(O)[C@@H]1[C@@H](Cn2nnc3ccccc3c2=O)CC[C@H]1C(=O)c1ccc(OCCC2CCOCC2)cc1 [BAY-694]
inactive: residual activity [1] 91% | residual activity [2] 97% | residual activity [3] 86% | residual activity [4] 93% | residual activity [5] 100% | residual activity [6] 97% | residual activity [7] 85% | residual activity [8] 100% | residual activity [9] 73% | residual activity [10] 95% | inhibition [11] 19.6% | residual activity [12] 85% | residual activity [13] 92% | residual activity [14] 84% | residual activity [15] 88% | residual activity [16] 89% | residual activity [17] 98% | residual activity [18] 89% | residual activity [19] 100% | residual activity [20] 100% | residual activity [21] 100% | residual activity [22] 100% | residual activity [23] 93% | residual activity [24] 90% | residual activity [25] 100% | residual activity [26] 100% | residual activity [27] 100% | residual activity [28] 84% | residual activity [29] 100% | residual activity [30] 94% | residual activity [31] 98% | residual activity [32] 86% | residual activity [33] 84% | residual activity [34] 91% | residual activity [35] 100% | residual activity [36] 100% | residual activity [37] 100% | residual activity [38] 100% | residual activity [39] 100% | residual activity [40] 100% | residual activity [41] 100% | residual activity [42] 100% | residual activity [43] 100% | residual activity [44] 100%

O=C(O)[C@H]1[C@H](Cn2nnc3ccccc3c2=O)CC[C@@H]1C(=O)c1ccc(OCCC2CCOCC2)cc1 [BAY-7598]
inactive: residual activity [1] 96% | residual activity [2] 98% | residual activity [3] 88% | residual activity [4] 100% | residual activity [5] 100% | residual activity [6] 100% | residual activity [7] 80% | residual activity [8] 99% | residual activity [9] 97% | residual activity [10] 80% | inhibition [11] 7.53% | residual activity [12] 97% | residual activity [13] 90% | residual activity [14] 75% | residual activity [15] 100% | residual activity [16] 95% | residual activity [17] 97% | residual activity [18] 83% | residual activity [19] 96% | residual activity [20] 100% | residual activity [21] 96% | residual activity [22] 55% | residual activity [23] 81% | residual activity [24] 84% | residual activity [25] 61% | residual activity [26] 90% | residual activity [27] 89% | residual activity [28] 61% | residual activity [29] 100% | residual activity [30] 100% | residual activity [31] 98% | residual activity [32] 75% | residual activity [33] 78% | residual activity [34] 100% | residual activity [35] 95% | residual activity [36] 96% | residual activity [37] 81% | residual activity [38] 93% | residual activity [39] 87% | residual activity [40] 100% | residual activity [41] 100% | residual activity [42] 73% | residual activity [43] 100% | residual activity [44] 91%
